The NIST ThermoML archive (doi:10.1021/je800046k)

Assay: xn = mol fraction of the nth substance listed
Details: for surface tension liquid-gas: Pendant drop shape; for mass density: 101 kPa, Liquid

CC(=O)OCC(C)C [2-methylpropyl ethanoate] + Cc1ccc(C)c(C)c1
Details	mass density [kg/m3]	surface tension liquid-gas [mN/m]
298.15 K, x1 = 0.0494	871.36	28.85
298.15 K, x1 = 0.0992	871.02	28.38
298.15 K, x1 = 0.1493	870.68	27.89
298.15 K, x1 = 0.2002	870.35	27.4
298.15 K, x1 = 0.2498	870.03	26.98
298.15 K, x1 = 0.2989	869.71	26.61
298.15 K, x1 = 0.3495	869.39	26.25
298.15 K, x1 = 0.3997	869.08	25.92
298.15 K, x1 = 0.4505	868.77	25.59
298.15 K, x1 = 0.4991	868.48	25.3
298.15 K, x1 = 0.5504	868.19	25.03
298.15 K, x1 = 0.6	867.92	24.78
298.15 K, x1 = 0.6496	867.65	24.54
298.15 K, x1 = 0.7006	867.37	24.32
298.15 K, x1 = 0.75	867.13	24.13
298.15 K, x1 = 0.8002	866.88	23.91
298.15 K, x1 = 0.8499	866.67	23.74
298.15 K, x1 = 0.9006	866.45	23.55
298.15 K, x1 = 0.9477	866.27	23.36
298.15 K, x1 = 1	866.06	23.15
308.15 K, x1 = 0.0495	863.22	27.75
308.15 K, x1 = 0.0992	862.76	27.26
308.15 K, x1 = 0.149	862.3	26.78
308.15 K, x1 = 0.1998	861.84	26.31
308.15 K, x1 = 0.25	861.39	25.89
308.15 K, x1 = 0.2995	860.95	25.52
308.15 K, x1 = 0.3497	860.51	25.17
308.15 K, x1 = 0.4004	860.07	24.83
308.15 K, x1 = 0.4501	859.64	24.52
308.15 K, x1 = 0.4995	859.23	24.21
308.15 K, x1 = 0.5505	858.81	23.94
308.15 K, x1 = 0.5994	858.42	23.69
308.15 K, x1 = 0.65	858.02	23.48
308.15 K, x1 = 0.6987	857.63	23.25
308.15 K, x1 = 0.7505	857.25	23.04
308.15 K, x1 = 0.7986	856.89	22.82
308.15 K, x1 = 0.8497	856.54	22.67
308.15 K, x1 = 0.8999	856.19	22.48
308.15 K, x1 = 0.9491	855.87	22.32
308.15 K, x1 = 1	855.51	22.16
313.15 K, x1 = 0.0506	859.06	27.18
313.15 K, x1 = 0.1002	858.55	26.67
313.15 K, x1 = 0.1499	858.03	26.15
313.15 K, x1 = 0.2001	857.52	25.7
313.15 K, x1 = 0.2505	857	25.28
313.15 K, x1 = 0.3001	856.51	24.91
313.15 K, x1 = 0.3502	856.01	24.59
313.15 K, x1 = 0.3995	855.53	24.26
313.15 K, x1 = 0.4501	855.03	23.95
313.15 K, x1 = 0.5001	854.56	23.62
313.15 K, x1 = 0.5503	854.08	23.36
313.15 K, x1 = 0.6007	853.61	23.08
313.15 K, x1 = 0.6492	853.16	22.9
313.15 K, x1 = 0.6997	852.71	22.65
313.15 K, x1 = 0.75	852.27	22.46
313.15 K, x1 = 0.801	851.82	22.2
313.15 K, x1 = 0.848	851.43	22.09
313.15 K, x1 = 0.8998	851.01	21.89
313.15 K, x1 = 0.9498	850.6	21.77
313.15 K, x1 = 1	850.16	21.64
